Data from patent US20240000872A1, “NOVEL BACTERIOPHAGE THAT LYSES ACINETOBACTER GENUS BACTERIA HAVING RESISTANCE TO ANTIBIOTICS” (priority 2020, published 2024).

Tested on: Acinetobacter baumannii strains
Assay: Antibiotic susceptibility test (CLSI disk diffusion test method, read per CLSI 2016); on antibiotic susceptibility S/I/R: key: ‘S’ means susceptible; ‘I’ means intermediate; ‘R’ means resistant; on antibiotic susceptibility class: key: ‘S’ means susceptible; ‘I’ means intermediate; ‘R’ means resistant; on susceptibility category (S/I/R): key: ‘S’ means susceptible; ‘I’ means intermediate; ‘R’ means resistant
Format: cell-based
Design: antibiotic susceptibility test value / susceptibility test value (number given before S/I/R) / antibiotic susceptibility value: unit not given here

## cortrimoxazole
Host strain YMC14/01/C29
  antibiotic susceptibility class: R
  antibiotic susceptibility test value: 320
Host strain YMC14/01/IP122
  antibiotic susceptibility class: S
  antibiotic susceptibility test value: 20
Host strain YMC14/01/L8
  antibiotic susceptibility class: R
  antibiotic susceptibility test value: 320
Host strain YMC14/01/P31
  antibiotic susceptibility class: R
  antibiotic susceptibility test value: 160
Host strain YMC14/01/P117
  antibiotic susceptibility class: R
  antibiotic susceptibility test value: 160
Host strain YMC14/01/P224
  antibiotic susceptibility class: R
  antibiotic susceptibility test value: 320
Host strain YMC14/01/P727
  antibiotic susceptibility class: R
  antibiotic susceptibility test value: 320
Host strain YMC14/01/P728
  antibiotic susceptibility class: R
  antibiotic susceptibility test value: 160
Host strain YMC14/01/R130
  antibiotic susceptibility class: R
  antibiotic susceptibility test value: 320
Host strain YMC14/01/R160
  antibiotic susceptibility class: R
  antibiotic susceptibility test value: 320
Host strain YMC14/01/R198
  antibiotic susceptibility class: R
  antibiotic susceptibility test value: 320
Host strain YMC14/01/R257
  antibiotic susceptibility class: R
  antibiotic susceptibility test value: 320
Host strain YMC14/01/R270
  antibiotic susceptibility class: R
  antibiotic susceptibility test value: 320
Host strain YMC14/01/R324
  antibiotic susceptibility class: R
  antibiotic susceptibility test value: 160
Host strain YMC14/01/R443
  antibiotic susceptibility class: R
  antibiotic susceptibility test value: 320
Host strain YMC14/01/R451
  antibiotic susceptibility class: R
  antibiotic susceptibility test value: 320
Host strain YMC14/01/R560
  antibiotic susceptibility class: R
  antibiotic susceptibility test value: 160
Host strain YMC14/01/R617
  antibiotic susceptibility class: R
  antibiotic susceptibility test value: 320
Host strain YMC14/01/R671
  antibiotic susceptibility class: R
  antibiotic susceptibility test value: 320
Host strain YMC14/01/R732
  antibiotic susceptibility class: R
  antibiotic susceptibility test value: 320
Host strain YMC14/01/R767
  antibiotic susceptibility class: R
  antibiotic susceptibility test value: 160
Host strain YMC14/01/R904
  antibiotic susceptibility class: S
  antibiotic susceptibility test value: 20
Host strain YMC14/01/R905
  antibiotic susceptibility class: R
  antibiotic susceptibility test value: 320
Host strain YMC14/01/R921
  antibiotic susceptibility class: S
  antibiotic susceptibility test value: 40
Host strain YMC14/01/R941
  antibiotic susceptibility class: R
  antibiotic susceptibility test value: 320
Host strain YMC14/01/R958
  antibiotic susceptibility class: R
  antibiotic susceptibility test value: 320
Host strain YMC14/01/R1006
  antibiotic susceptibility class: R
  antibiotic susceptibility test value: 320
Host strain YMC14/01/R1199
  antibiotic susceptibility class: R
  antibiotic susceptibility test value: 160
Host strain YMC14/01/R1659
  antibiotic susceptibility class: R
  antibiotic susceptibility test value: 320
Host strain YMC14/01/R1722
  antibiotic susceptibility class: R
  antibiotic susceptibility test value: 320
Host strain YMC14/01/R1752
  antibiotic susceptibility class: S
  antibiotic susceptibility test value: 20
Host strain YMC14/01/R2429
  antibiotic susceptibility class: R
  antibiotic susceptibility test value: 160
Host strain YMC14/01/R2572
  antibiotic susceptibility class: R
  antibiotic susceptibility test value: 320
Host strain YMC14/01/R2855
  antibiotic susceptibility class: R
  antibiotic susceptibility test value: 320
Host strain YMC14/01/R2945
  antibiotic susceptibility class: R
  antibiotic susceptibility test value: 160
Host strain YMC14/01/R3007
  antibiotic susceptibility class: S
  antibiotic susceptibility test value: 20
Host strain YMC14/01/R3129
  antibiotic susceptibility class: S
  antibiotic susceptibility test value: 20
Host strain YMC14/01/R3317
  antibiotic susceptibility class: R
  antibiotic susceptibility test value: 160
Host strain YMC14/01/R3474
  antibiotic susceptibility class: R
  antibiotic susceptibility test value: 160
Host strain YMC14/01/R3574
  antibiotic susceptibility class: R
  antibiotic susceptibility test value: 160
Host strain YMC14/01/U313
  antibiotic susceptibility class: R
  antibiotic susceptibility test value: 320
Host strain YMC14/01/U318
  antibiotic susceptibility class: R
  antibiotic susceptibility test value: 320
Host strain YMC14/02/L18
  antibiotic susceptibility class: R
  antibiotic susceptibility test value: 160
Host strain YMC14/02/P47
  antibiotic susceptibility class: R
  antibiotic susceptibility test value: 320
Host strain YMC14/02/R1860
  antibiotic susceptibility class: R
  antibiotic susceptibility test value: 320
Host strain YMC14/02/R2417
  antibiotic susceptibility class: R
  antibiotic susceptibility test value: 320
Host strain YMC14/02/R2599
  antibiotic susceptibility class: S
  antibiotic susceptibility test value: 20
Host strain YMC14/02/R2668
  antibiotic susceptibility class: R
  antibiotic susceptibility test value: 320
Host strain YMC14/02/R2758
  antibiotic susceptibility class: R
  antibiotic susceptibility test value: 320
Host strain YMC14/02/R2781
  antibiotic susceptibility class: R
  antibiotic susceptibility test value: 160
Host strain YMC14/02/R3106
  antibiotic susceptibility class: R
  antibiotic susceptibility test value: 320
Host strain YMC14/02/R3419
  antibiotic susceptibility class: R
  antibiotic susceptibility test value: 320
Host strain YMC14/02/U1607
  antibiotic susceptibility class: S
  antibiotic susceptibility test value: 20
Host strain YMC14/03/L9
  antibiotic susceptibility class: R
  antibiotic susceptibility test value: 160
Host strain YMC14/03/P471
  antibiotic susceptibility class: S
  antibiotic susceptibility test value: 20
Host strain YMC14/03/R122
  antibiotic susceptibility class: S
  antibiotic susceptibility test value: 20
Host strain YMC14/03/R217
  antibiotic susceptibility class: R
  antibiotic susceptibility test value: 160
Host strain YMC14/03/R380
  antibiotic susceptibility class: R
  antibiotic susceptibility test value: 320
Host strain YMC14/03/R618
  antibiotic susceptibility class: S
  antibiotic susceptibility test value: 20
Host strain YMC14/03/R2144
  antibiotic susceptibility class: R
  antibiotic susceptibility test value: 160
Host strain YMC14/03/U4616
  antibiotic susceptibility class: R
  antibiotic susceptibility test value: 160
Host strain YMC14/04/R1078
  antibiotic susceptibility class: S
  antibiotic susceptibility test value: 20
Host strain YMC14/04/R1080
  antibiotic susceptibility class: S
  antibiotic susceptibility test value: 20
Host strain YMC14/06/R2359
  antibiotic susceptibility S/I/R: R
  antibiotic susceptibility value: 320
  susceptibility category (S/I/R): R
  susceptibility test value (number given before S/I/R): 320
Host strain YMC14/08/R1169
  antibiotic susceptibility S/I/R: R
  antibiotic susceptibility value: 320
  susceptibility category (S/I/R): R
  susceptibility test value (number given before S/I/R): 320
Host strain YMC14/08/T90
  antibiotic susceptibility S/I/R: R
  antibiotic susceptibility value: 320
  susceptibility category (S/I/R): R
  susceptibility test value (number given before S/I/R): 320
Host strain YMC15/02/R436
  antibiotic susceptibility S/I/R: R
  antibiotic susceptibility value: 320
  susceptibility category (S/I/R): R
  susceptibility test value (number given before S/I/R): 320
Host strain YMC15/02/T28
  antibiotic susceptibility S/I/R: R
  antibiotic susceptibility value: 320
  susceptibility category (S/I/R): R
  susceptibility test value (number given before S/I/R): 320
Host strain YMC15/03/R1604
  antibiotic susceptibility S/I/R: R
  antibiotic susceptibility value: 320
  susceptibility category (S/I/R): R
  susceptibility test value (number given before S/I/R): 320
Host strain YMC15/09/R1869
  antibiotic susceptibility S/I/R: R
  antibiotic susceptibility value: 320
  susceptibility category (S/I/R): R
  susceptibility test value (number given before S/I/R): 320
Host strain YMC16/01/P11
  antibiotic susceptibility S/I/R: R
  antibiotic susceptibility value: 320
  susceptibility category (S/I/R): R
  susceptibility test value (number given before S/I/R): 320
Host strain YMC16/01/R123
  antibiotic susceptibility S/I/R: R
  antibiotic susceptibility value: 160
  susceptibility category (S/I/R): R
  susceptibility test value (number given before S/I/R): 160
Host strain YMC16/01/R198
  antibiotic susceptibility S/I/R: R
  antibiotic susceptibility value: 160
  susceptibility category (S/I/R): R
  susceptibility test value (number given before S/I/R): 160
Host strain YMC16/01/R353
  antibiotic susceptibility S/I/R: R
